According to patent US20250230193A1, “CYCLIC COMPOUND HAVING SELECTIVE KRAS INHIBITORY EFFECT ON HRAS AND NRAS” (CHUGAI SEIYAKU KABUSHIKI KAISHA, priority 2022, published 2025):

Tests used:
[1] = target: GDP-bound NRAS wild-type protein (Homo sapiens, UniProt P01111); assay: Binding to NRAS by surface plasmon resonance (SPR), Single Cycle Kinetics; conditions: KD ratio, GDP-bound NRAS wild-type vs GDP-bound KRAS wild-type, SPR
[2] = target: GDP-bound HRAS wild-type protein (Homo sapiens, UniProt P01112); assay: Binding to HRAS by surface plasmon resonance (SPR), Single Cycle Kinetics; conditions: KD ratio, GDP-bound HRAS wild-type vs GDP-bound KRAS wild-type, SPR
Chain of GDP-bound HRAS wild-type protein (P01112 whole entry): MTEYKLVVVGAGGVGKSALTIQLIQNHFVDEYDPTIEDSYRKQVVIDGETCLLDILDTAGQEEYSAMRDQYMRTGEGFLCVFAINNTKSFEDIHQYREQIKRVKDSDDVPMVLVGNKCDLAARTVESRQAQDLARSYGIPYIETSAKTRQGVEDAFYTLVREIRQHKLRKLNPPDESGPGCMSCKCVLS

Chain of GDP-bound NRAS wild-type protein (P01111 whole entry): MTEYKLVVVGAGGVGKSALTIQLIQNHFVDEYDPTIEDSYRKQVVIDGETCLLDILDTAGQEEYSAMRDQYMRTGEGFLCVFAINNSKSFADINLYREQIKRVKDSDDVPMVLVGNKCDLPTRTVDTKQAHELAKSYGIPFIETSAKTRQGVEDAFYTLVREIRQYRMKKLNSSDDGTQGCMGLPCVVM

| SMILES | NRAS/KRAS (ratio of KD value for NRAS to KD value for KRAS) [1] | HRAS/KRAS (ratio of KD value for HRAS to KD value for KRAS) [2] |
| --- | --- | --- |
| CCCN(C)C(=O)[C@@H]1CC(=O)N(C)[C@@H](C2CCC2)C(=O)N[C@@H]([C@@H](C)CC)C(=O)N(C)CC(=O)N(C)[C@H]2C/C=C\CCN(C2=O)[C@@H](Cc2ccc(C(F)(F)F)cc2)C(=O)N(C)CC(=O)N[C@@H](CCc2cc(F)c(C(F)(F)F)c(F)c2)C(=O)N2C[C@H](OCC)C[C@H]2C(=O)NC2(CCC2)C(=O)N(C)[C@@H](C2CCCC2)C(=O)N1C [PP1998] | A (a compound having 10 or more and less than 20 is denoted as A) | B (a compound having 3 or more and less than 10 is denoted as B) |
| CC[C@H](C)[C@@H]1NC(=O)[C@H](CCOC)N(C)C(=O)C[C@@H](C(=O)N(C)CC)N(C)C(=O)[C@H](C2CCCC2)N(C)C(=O)C2(CC(C)(C)C2)NC(=O)[C@@H]2C[C@H](C)CN2C(=O)[C@H](CCc2ccc(C(F)(F)F)c(OC)c2)NC(=O)CN(C)C(=O)[C@H](Cc2ccc(C(F)(F)F)cc2)N2CC/C=C\C[C@@H](C2=O)N(C)C(=O)CN(C)C1=O [PP1999] | A (a compound having 10 or more and less than 20 is denoted as A) | B (a compound having 3 or more and less than 10 is denoted as B) |
| CCCN(C)C(=O)[C@@H]1CC(=O)N(C)[C@@H](CC(F)F)C(=O)N[C@@H]([C@@H](C)CC)C(=O)N(C)CC(=O)N(C)[C@H]2C/C=C\CCN(C2=O)[C@@H](Cc2ccc(C(F)(F)F)cc2)C(=O)N(C)CC(=O)N[C@@H](CCc2cc(F)c(C(F)(F)F)c(F)c2)C(=O)N2C[C@@H](C)C[C@H]2C(=O)NC2(CCC2)C(=O)N(C)[C@@H](C2CCCC2)C(=O)N1C [PP2000] | A (a compound having 10 or more and less than 20 is denoted as A) | B (a compound having 3 or more and less than 10 is denoted as B) |
| CCCN(C)C(=O)[C@@H]1CC(=O)N(C)[C@@H](CCOC)C(=O)N[C@@H]([C@@H](C)CC)C(=O)N(C)CC(=O)N(C)[C@H]2C/C=C\CCN(C2=O)[C@@H](Cc2ccc(C(F)(F)F)cc2)C(=O)N(C)CC(=O)N[C@@H](CCc2ccc(C(F)(F)F)c(OC)c2)C(=O)N2C[C@@H](C)C[C@H]2C(=O)NC2(CC(C)(C)C2)C(=O)N(C)[C@@H](C2CCCC2)C(=O)N1C [PP2001] | A (a compound having 10 or more and less than 20 is denoted as A) | A (a compound having 10 or more and less than 20 is denoted as A) |
| CC[C@H](C)[C@@H]1NC(=O)[C@H](C(C)C)N(C)C(=O)C[C@@H](C(=O)N(C)CC)N(C)C(=O)[C@H](C2CCCC2)N(C)C(=O)C2(CC(C)(C)C2)NC(=O)[C@@H]2C[C@H](C)CN2C(=O)[C@H](CCc2ccc(C(F)(F)F)c(OC)c2)NC(=O)CN(C)C(=O)[C@H](Cc2ccc(C(F)(F)F)cc2)N2CC/C=C\C[C@@H](C2=O)N(C)C(=O)CN(C)C1=O [PP2003] | A (a compound having 10 or more and less than 20 is denoted as A) | B (a compound having 3 or more and less than 10 is denoted as B) |
| CC[C@H](C)[C@@H]1NC(=O)[C@H](C(C)C)N(C)C(=O)C[C@@H](C(=O)N(C)C)N(C)C(=O)[C@H](C2CCCC2)N(C)C(=O)C2(CC(C)(C)C2)NC(=O)[C@@H]2C[C@H](C)CN2C(=O)[C@H](CCc2ccc(C(F)(F)F)c(OC)c2)NC(=O)CN(C)C(=O)[C@H](Cc2ccc(C(F)(F)F)cc2)N2CC/C=C\C[C@@H](C2=O)N(C)C(=O)CN(C)C1=O [PP2005] | A (a compound having 10 or more and less than 20 is denoted as A) | A (a compound having 10 or more and less than 20 is denoted as A) |
| CC[C@H](C)[C@@H]1NC(=O)[C@H](C2CC2)N(C)C(=O)C[C@@H](C(=O)N(C)CC)N(C)C(=O)[C@H](C2CCCC2)N(C)C(=O)C2(CC(C)(C)C2)NC(=O)[C@@H]2C[C@H](C)CN2C(=O)[C@H](CCc2ccc(C(F)(F)F)c(OC)c2)NC(=O)CN(C)C(=O)[C@H](Cc2ccc(C(F)(F)F)cc2)N2CC/C=C\C[C@@H](C2=O)N(C)C(=O)CN(C)C1=O [PP2007] | AA (a compound having 20 or more is denoted as AA) | B (a compound having 3 or more and less than 10 is denoted as B) |
| CCCOC[C@H]1C(=O)N[C@@H]([C@@H](C)CC)C(=O)N(C)CC(=O)N(C)[C@H]2C/C=C\CCN(C2=O)[C@@H](Cc2ccc(C(F)(F)F)cc2)C(=O)N(C)CC(=O)N[C@@H](CCc2cc(F)c(C(F)(F)F)c(F)c2)C(=O)N2C[C@@H](C)C[C@H]2C(=O)NC2(CCC2)C(=O)N(C)[C@@H](C2CCCC2)C(=O)N(C)[C@H](C(=O)N(C)CCC)CC(=O)N1C [PP2008] | A (a compound having 10 or more and less than 20 is denoted as A) | A (a compound having 10 or more and less than 20 is denoted as A) |
| CC[C@H](C)[C@@H]1NC(=O)[C@H](C2CCC2)N(C)C(=O)C[C@@H](C(=O)N(C)CC)N(C)C(=O)[C@H](C2CCCC2)N(C)C(=O)C2(CC(C)(C)C2)NC(=O)[C@@H]2C[C@H](C)CN2C(=O)[C@H](CCc2ccc(C(F)(F)F)c(OC)c2)NC(=O)CN(C)C(=O)[C@H](Cc2ccc(C(F)(F)F)cc2)N2CC/C=C\C[C@@H](C2=O)N(C)C(=O)CN(C)C1=O [PP2009] | A (a compound having 10 or more and less than 20 is denoted as A) | A (a compound having 10 or more and less than 20 is denoted as A) |
| CCCN(C)C(=O)[C@@H]1CC(=O)N(C)[C@@H](CC(F)F)C(=O)N[C@@H]([C@@H](C)CC)C(=O)N(C)CC(=O)N(C)[C@H]2C/C=C\CCN(C2=O)[C@@H](Cc2ccc(C(F)(F)F)cc2)C(=O)N(C)CC(=O)N[C@@H](CCc2ccc(C(F)(F)F)c(OC)c2)C(=O)N2C[C@H](OCC)C[C@H]2C(=O)NC2(CC(C)(C)C2)C(=O)N(C)[C@@H](C2CCCC2)C(=O)N1C [PP2010] | A (a compound having 10 or more and less than 20 is denoted as A) | B (a compound having 3 or more and less than 10 is denoted as B) |
| CC[C@H](C)[C@@H]1NC(=O)[C@H](C2CCC2)N(C)C(=O)C[C@@H](C(=O)N(C)C)N(C)C(=O)[C@H](C2CCCC2)N(C)C(=O)C2(CC(C)(C)C2)NC(=O)[C@@H]2C[C@H](C)CN2C(=O)[C@H](CCc2ccc(C(F)(F)F)c(OC)c2)NC(=O)CN(C)C(=O)[C@H](Cc2ccc(C(F)(F)F)cc2)N2CC/C=C\C[C@@H](C2=O)N(C)C(=O)CN(C)C1=O [PP2011] | A (a compound having 10 or more and less than 20 is denoted as A) | A (a compound having 10 or more and less than 20 is denoted as A) |
| CCCN(C)C(=O)[C@@H]1CC(=O)N(C)[C@@H](COCC)C(=O)N[C@@H]([C@@H](C)CC)C(=O)N(C)CC(=O)N(C)[C@H]2C/C=C\CCN(C2=O)[C@@H](Cc2ccc(C(F)(F)F)cc2)C(=O)N(C)CC(=O)N[C@@H](CCc2ccc(C(F)(F)F)c(OC)c2)C(=O)N2C[C@H](OCC)C[C@H]2C(=O)NC2(CC(C)(C)C2)C(=O)N(C)[C@@H](C2CCCC2)C(=O)N1C [PP2012] | AA (a compound having 20 or more is denoted as AA) | A (a compound having 10 or more and less than 20 is denoted as A) |
